# Results: patent US20260306644A1, “ANTIBODY RECRUITING MOLECULES FOR THE TREATMENT OF CORONAVIRUS DISEASE-19” (priority 2023, published 2026)
# Values joined by “and” are separate entries in the source; they are usually repeats but may differ in a detail not shown here. Identical values can stand only once.
# Experiments:
# [1] = molecular target: SARS-CoV-2 Spike protein (Severe acute respiratory syndrome coronavirus 2, UniProt P0DTC2); experiment: Ternary binding of SARS-CoV-2 Spike protein (293T cells expressing Spike-GFP, IgG-AF647, flow cytometry); format: cell-based; conditions: 293T cells expressing Spike-GFP; IgG-AF647 10 μg/ml; repeat values/batches listed separately; read-out: SARS-CoV-2 Ternary binding EC50
# [2] = molecular target: T1, SARS-CoV-2 Spike A (wild-type) (Severe acute respiratory syndrome coronavirus 2, UniProt P0DTC2); experiment: MSD ACE2 competition assay (inhibition of Spike binding with ACE2, ECL), A (wild-type); conditions: IC50 Wild Type, Wild Type Spike
# T1 construct: purchased Meso Scale Diagnostics, LLC V-PLEX SARS-CoV-2 Panel 13 (ACE2) Kit / Panel 23 (ACE2) Kit
SMILES,EC50 [1],IC50 [2] [nM]
CC[C@H](C)[C@H](NC(=O)[C@H](CC(C)C)NC(=O)[C@H](CC(=O)O)NC(=O)[C@H](CO)NC(=O)[C@@H](NC(=O)[C@H](CCCNC(=N)N)NC(=O)[C@H](CCSC)NC(=O)[C@H](CO)NC(=O)[C@H](C)NC(=O)[C@H](CCC(=O)O)NC(=O)[C@H](C)NC(=O)[C@H](Cc1c[nH]cn1)NC(=O)CNC(=O)[C@H](CC(C)C)NC(=O)[C@H](CCC(=O)O)NC(=O)[C@H](CC(=O)O)NC(=O)[C@H](CC(C)C)NC(=O)[C@H](CC(C)C)NC(=O)[C@H](CCCNC(=N)N)NC(=O)[C@H](CCSC)NC(=O)[C@@H](NC(=O)[C@H](CCC(=O)O)NC(=O)[C@H](Cc1ccc(O)cc1)NC(=O)[C@@H](NC(=O)[C@H](CCCCN)NC(=O)[C@H](CCC(N)=O)NC(=O)[C@H](CC(C)C)NC(=O)[C@@H](NC(=O)[C@H](Cc1c[nH]c2ccccc12)NC(=O)[C@H](CCC(=O)O)NC(=O)[C@H](CCCCN)NC(=O)[C@@H](N)CC(=O)O)[C@@H](C)CC)[C@@H](C)CC)[C@@H](C)CC)C(C)C)C(=O)N[C@@H](Cc1ccc(O)cc1)C(=O)N[C@@H](CCC(=O)O)C(=O)N[C@@H](Cc1ccccc1)C(=O)N[C@@H](CCSC)C(=O)N[C@@H](CCCCN)C(=O)N[C@@H](CCCCN)C(=O)NCC(=O)NCC(=O)NCC(=O)NCC(=O)N[C@@H](CC(=O)O)C(=O)N[C@H]1CSSC[C@@H](C(=O)N[C@H](C(=O)O)[C@@H](C)O)NC(=O)[C@H](Cc2c[nH]c3ccccc23)NC(=O)[C@H](C(C)C)NC(=O)[C@H](CC(C)C)NC(=O)[C@H](CCC(=O)O)NC(=O)CNC(=O)[C@H](CC(C)C)NC(=O)[C@H](Cc2c[nH]cn2)NC(=O)[C@H](Cc2c[nH]c3ccccc23)NC(=O)[C@H](C)NC1=O [Compound 106],2.6 nM and 2.5 nM,22.1
CC[C@H](C)[C@H](NC(=O)[C@H](CC(C)C)NC(=O)[C@H](CC(=O)O)NC(=O)[C@H](CO)NC(=O)[C@@H](NC(=O)[C@H](CCCNC(=N)N)NC(=O)[C@H](CCSC)NC(=O)[C@H](CO)NC(=O)[C@H](C)NC(=O)[C@H](CCC(=O)O)NC(=O)[C@H](C)NC(=O)[C@H](Cc1c[nH]cn1)NC(=O)CNC(=O)[C@H](CC(C)C)NC(=O)[C@H](CCC(=O)O)NC(=O)[C@H](CC(=O)O)NC(=O)[C@H](CC(C)C)NC(=O)[C@H](CC(C)C)NC(=O)[C@H](CCCNC(=N)N)NC(=O)[C@H](CCSC)NC(=O)[C@@H](NC(=O)[C@H](CCC(=O)O)NC(=O)[C@H](Cc1ccc(O)cc1)NC(=O)[C@@H](NC(=O)[C@H](CCCCN)NC(=O)[C@H](CCC(N)=O)NC(=O)[C@H](CC(C)C)NC(=O)[C@@H](NC(=O)[C@H](Cc1c[nH]c2ccccc12)NC(=O)[C@H](CCC(=O)O)NC(=O)[C@H](CCCCN)NC(=O)[C@H](CC(=O)O)NC(C)=O)[C@@H](C)CC)[C@@H](C)CC)[C@@H](C)CC)C(C)C)C(=O)N[C@@H](Cc1ccc(O)cc1)C(=O)N[C@@H](CCC(=O)O)C(=O)N[C@@H](Cc1ccccc1)C(=O)N[C@@H](CCSC)C(=O)N[C@@H](CCCCN)C(=O)N[C@@H](CCCCN)C(=O)NCC(=O)NCC(=O)NCC(=O)NCC(=O)N[C@@H](CC(=O)O)C(=O)N[C@H]1CSSC[C@@H](C(=O)N[C@H](C(=O)O)[C@@H](C)O)NC(=O)[C@H](Cc2c[nH]c3ccccc23)NC(=O)[C@H](C(C)C)NC(=O)[C@H](CC(C)C)NC(=O)[C@H](CCC(=O)O)NC(=O)CNC(=O)[C@H](CC(C)C)NC(=O)[C@H](Cc2c[nH]cn2)NC(=O)[C@H](Cc2c[nH]c3ccccc23)NC(=O)[C@H](C)NC1=O [Compound 107],3.1 nM and 4.5 nM,36.2
CC[C@H](C)[C@H](NC(=O)[C@H](CC(C)C)NC(=O)[C@H](CC(=O)O)NC(=O)[C@H](CO)NC(=O)[C@@H](NC(=O)[C@H](CCCNC(=N)N)NC(=O)[C@H](CCSC)NC(=O)[C@H](CO)NC(=O)[C@H](C)NC(=O)[C@H](CCC(=O)O)NC(=O)[C@H](C)NC(=O)[C@H](Cc1c[nH]cn1)NC(=O)CNC(=O)[C@H](CC(C)C)NC(=O)[C@H](CCC(=O)O)NC(=O)[C@H](CC(=O)O)NC(=O)[C@H](CC(C)C)NC(=O)[C@H](CC(C)C)NC(=O)[C@H](CCCNC(=N)N)NC(=O)[C@H](CCSC)NC(=O)[C@@H](NC(=O)[C@H](CCC(=O)O)NC(=O)[C@H](Cc1ccc(O)cc1)NC(=O)[C@@H](NC(=O)[C@H](CCCCN)NC(=O)[C@H](CCC(N)=O)NC(=O)[C@H](CC(C)C)NC(=O)[C@@H](NC(=O)[C@H](Cc1c[nH]c2ccccc12)NC(=O)[C@H](CCC(=O)O)NC(=O)[C@H](CCCCN)NC(=O)[C@@H](N)CC(=O)O)[C@@H](C)CC)[C@@H](C)CC)[C@@H](C)CC)C(C)C)C(=O)N[C@@H](Cc1ccc(O)cc1)C(=O)N[C@@H](CCC(=O)O)C(=O)N[C@@H](Cc1ccccc1)C(=O)N[C@@H](CCSC)C(=O)N[C@@H](CCCCN)C(=O)N[C@@H](CCCCN)C(=O)NCC(=O)N[C@@H](CCC(N)=O)C(=O)N[C@@H](C)C(=O)N1CCC[C@H]1C(=O)N[C@@H](CC(=O)O)C(=O)N[C@H]1CSSC[C@@H](C(=O)N[C@H](C(=O)O)[C@@H](C)O)NC(=O)[C@H](Cc2c[nH]c3ccccc23)NC(=O)[C@H](C(C)C)NC(=O)[C@H](CC(C)C)NC(=O)[C@H](CCC(=O)O)NC(=O)CNC(=O)[C@H](CC(C)C)NC(=O)[C@H](Cc2c[nH]cn2)NC(=O)[C@H](Cc2c[nH]c3ccccc23)NC(=O)[C@H](C)NC1=O [Compound 108],2.7 nM and 1.9 nM,20.6
CC[C@H](C)[C@H](NC(=O)[C@H](CC(C)C)NC(=O)[C@H](CC(=O)O)NC(=O)[C@H](CO)NC(=O)[C@@H](NC(=O)[C@H](CCCNC(=N)N)NC(=O)[C@H](CCSC)NC(=O)[C@H](CO)NC(=O)[C@H](C)NC(=O)[C@H](CCC(=O)O)NC(=O)[C@H](C)NC(=O)[C@H](Cc1c[nH]cn1)NC(=O)CNC(=O)[C@H](CC(C)C)NC(=O)[C@H](CCC(=O)O)NC(=O)[C@H](CC(=O)O)NC(=O)[C@H](CC(C)C)NC(=O)[C@H](CC(C)C)NC(=O)[C@H](CCCNC(=N)N)NC(=O)[C@H](CCSC)NC(=O)[C@@H](NC(=O)[C@H](CCC(=O)O)NC(=O)[C@H](Cc1ccc(O)cc1)NC(=O)[C@@H](NC(=O)[C@H](CCCCN)NC(=O)[C@H](CCC(N)=O)NC(=O)[C@H](CC(C)C)NC(=O)[C@@H](NC(=O)[C@H](Cc1c[nH]c2ccccc12)NC(=O)[C@H](CCC(=O)O)NC(=O)[C@H](CCCCN)NC(=O)[C@H](CC(=O)O)NC(C)=O)[C@@H](C)CC)[C@@H](C)CC)[C@@H](C)CC)C(C)C)C(=O)N[C@@H](Cc1ccc(O)cc1)C(=O)N[C@@H](CCC(=O)O)C(=O)N[C@@H](Cc1ccccc1)C(=O)N[C@@H](CCSC)C(=O)N[C@@H](CCCCN)C(=O)N[C@@H](CCCCN)C(=O)NCC(=O)N[C@@H](CCC(N)=O)C(=O)N[C@@H](C)C(=O)N1CCC[C@H]1C(=O)N[C@@H](CC(=O)O)C(=O)N[C@H]1CSSC[C@@H](C(=O)N[C@H](C(=O)O)[C@@H](C)O)NC(=O)[C@H](Cc2c[nH]c3ccccc23)NC(=O)[C@H](C(C)C)NC(=O)[C@H](CC(C)C)NC(=O)[C@H](CCC(=O)O)NC(=O)CNC(=O)[C@H](CC(C)C)NC(=O)[C@H](Cc2c[nH]cn2)NC(=O)[C@H](Cc2c[nH]c3ccccc23)NC(=O)[C@H](C)NC1=O [Compound 109],1.2 nM and 2.2 nM,15.9
CC[C@H](C)[C@H](NC(=O)[C@H](CC(C)C)NC(=O)[C@H](CC(=O)O)NC(=O)[C@H](CO)NC(=O)[C@@H](NC(=O)[C@H](CCCNC(=N)N)NC(=O)[C@H](CCSC)NC(=O)[C@H](CO)NC(=O)[C@H](C)NC(=O)[C@H](CCC(=O)O)NC(=O)[C@H](C)NC(=O)[C@H](Cc1c[nH]cn1)NC(=O)CNC(=O)[C@H](CC(C)C)NC(=O)[C@H](CCC(=O)O)NC(=O)[C@H](CC(=O)O)NC(=O)[C@H](CC(C)C)NC(=O)[C@H](CC(C)C)NC(=O)[C@H](CCCNC(=N)N)NC(=O)[C@H](CCSC)NC(=O)[C@@H](NC(=O)[C@H](CCC(=O)O)NC(=O)[C@H](Cc1ccc(O)cc1)NC(=O)[C@@H](NC(=O)[C@H](CCCCN)NC(=O)[C@H](CCC(N)=O)NC(=O)[C@H](CC(C)C)NC(=O)[C@@H](NC(=O)[C@H](Cc1c[nH]c2ccccc12)NC(=O)[C@H](CCC(=O)O)NC(=O)[C@H](CCCCN)NC(=O)[C@H](CC(=O)O)NC(C)=O)[C@@H](C)CC)[C@@H](C)CC)[C@@H](C)CC)C(C)C)C(=O)N[C@@H](Cc1ccc(O)cc1)C(=O)N[C@@H](CCC(=O)O)C(=O)N[C@@H](Cc1ccccc1)C(=O)N[C@@H](CCSC)C(=O)N[C@@H](CCCCN)C(=O)N[C@@H](CCCCN)C(=O)NCC(=O)N[C@@H](CC(=O)O)C(=O)N[C@H]1CSSC[C@@H](C(=O)N[C@H](C(=O)O)[C@@H](C)O)NC(=O)[C@H](Cc2c[nH]c3ccccc23)NC(=O)[C@H](C(C)C)NC(=O)[C@H](CC(C)C)NC(=O)[C@H](CCC(=O)O)NC(=O)CNC(=O)[C@H](CC(C)C)NC(=O)[C@H](Cc2c[nH]cn2)NC(=O)[C@H](Cc2c[nH]c3ccccc23)NC(=O)[C@H](C)NC1=O [Compound 112],0.45 nM and 0.55 nM,40.7
